# Experimental data taken from patent US9314453B2, “Tetrahydropyridoethers for treatment of AMD” (KATAIRO GmbH, priority 2008, dated 2016).
# Tests used:
# [1] = system: retinal pigment epithelium; assay: Transmission electron microscopy of RPE and photoreceptors after 52 weeks oral treatment; type: in vivo, Cynomolgus monkey
# Description: In the present example the effect of Soraprazan on pigmentation of the retinal pigment epithelium in the Cynomolgus monkey (4 years of age) after oral application of 24 mg/kg/day for 52 weeks is shown.
# Right eyes from the following animals were subjected to transmission electron microscopy:
# Right eyes were removed carefully. A circular slit was cut at the limbus in order to immerse the inner eye with the fixation fluid (5% Glutaraldehyd in […] Cacodylat buffer). From these eyes, specimens ([…] in diameter) from the macula and from the mid-area were cut out, were postfixed in OsO4, treated with uranylacetate, dehydrated and embedded in Epon resin.
# Semithin sections (0.7 μm) were prepared from Epon resin blocks. They were stained with toluidin blue and evaluated under a light microscope. Subsequently, ultrathin sections (50 nm) were cut from Epon resin blocks, contrasted and evaluated in a transmission electron microscope.
# The number of lipofuscin granules that were smaller than 0.4 μm in diameter was counted in the cytoplasm of ultrathin sections of RPE cells from untreated and treated monkeys. In addition the same counts were performed in macrophages located between RPE and Bruch's membrane of treated monkeys. The results were 4.9±0.6/50 μm^2, 0.6±0.2/50 μm^2; […]. Lipofuscin granules larger than 1 μm in diameter were absent in RPE cells of treated animals. In contrast many of them were present in RPE cells of untreated monkeys.
# [2] = system: Retinal pigment epithelium (RPE) cells from human donor eyes; assay: Lipofuscin content and pigmentation in cultured RPE cells from human donor eyes (digital image analysis); type: cell-based; settings: for Lipofuscin and pigment content in cultured RPE cells: 50 μg/ml or 0.25 mM, permanent exposure, versus control; for Lipofuscin and melanin in cultured human RPE cells: after 26 days of treatment (FIG. 18)
# Description: Retinal pigment epithelium (RPE) cells from human donor eyes were cultured and exposed permanently to either vehicle solution, solution of Soraprazan or solution of 7R,8R,9R)-2,3-Dimethyl-7-ethoxy-8-hydroxy-9-phenyl-7,8,9,10-tetrahydro-imidazo-[1,2-h][1,7]-naphthyridin (called substance 1) at a concentration of 50 μg/ml or 0.25 mM. At several time points, digital images were taken and analysed with respect to the portion of lipofuscin and pigmentation in general. As the results did strongly depend on the random choice of microscopic field and the variations of the data were very high, the values of four consecutive days of five independent experiments were averaged. The results for the lipofuscin content in the RPE cells are shown in the diagram (FIG. 18).
# Retinal pigment epithelium (RPE) cells from human donor eyes were cultured and exposed permanently to either vehicle solution, solution of Soraprazan or solution of substance 1 (concentration 50 μg/ml or 0.25 mM). At several time points, digital images were taken and analysed with respect to the portion of lipofuscin and pigmentation in general.
# RPE = assay: Counting of fluorescent lipofuscin particles in RPE after intravitreal injection in Wistar rats; type: in vivo; settings: three weeks after one single intravitreal injection, 50 μg/ml or 0.25 mM in the vitreous
# Description: (§1) The effects of lipofuscin in vivo, i.e. in the living eye of experimental rats after an intravitreal injection of the compounds were investigated. Vehicle solution or solutions of either substance 1 or Soraprazan were injected intravitreally in half-year old Wistar rats. The final concentration in the vitreous was the same as in the cell cultures, i.e. 50 μg/ml or 0.25 mM. In order to avoid mutual interactions between the two eyes of an animal, both eyes of an animal were treated the same way, with three animals (i.e. six eyes) per group.
# (§2) Two kinds of evaluation were performed in these animals—electroretinography (ERG) for functional testing, and counting of lipofuscin particles to check whether the administration of the compounds leads to a decrease of lipofuscin contents in the RPE.
# The eyes were isolated after three weeks, fixed in formalin and embedded in paraffin. Paraffin sections were made, and digital fluorescence images were evaluated. The number of fluorescent lipofuscin particles per 50 μm RPE layer length was counted. The results are shown in the diagram (FIG. 21).
# [3] = system: photoreceptors and post-receptoral systems; assay: Electroretinography (ERG) after intravitreal injection in Wistar rats; type: in vivo; settings: for ERG a-wave and b-wave amplitudes after injection, compared with vehicle: intravitreal, 50 μg/ml or 0.25 mM in the vitreous, highest light intensity, initial decrease; for ERG a-wave and b-wave amplitudes, recovery: three weeks after the intravitreal injection
# Description: as §1, §2
# Before the injection, electroretinograms were measured to obtain base line values. Additional ERG measurements were performed one, two and three weeks after the intravitreal injections. Some results are shown in the diagrams below.
# [4] = system: Heavily pigmented human donor RPE cells; assay: Electron microscopy / semithin sections of heavily pigmented human donor RPE cells, degradational clusters; type: cell-based; settings: 28 days
# Description: Heavily pigmented human donor RPE cells (passage)) were treated with 50 μg/ml substance 1 or 30 μg/ml Soraprazan and cultured for 28 days. Cells without treatment were used as controls. Cells were fixed for electron microscopy in 2% glutaraldehyde and embedded in EPON. Semithin and ultrathin sections were cut.
# In the semithin sections, the clusters could be observed as well. Here, the pigmented cells bearing one or more clusters were counted. Degradational clusters were detected in 90.5%+/−21.3 of cells treated with substance 1 and in 80.1%+/−22.6 of cells treated with Soraprazan, but only in 16.8%+/−21.6 of untreated cells (p<0.0001).
# RPE cells [5] = assay: Fluorescence microscopy of lipofuscin granules in RPE sections of treated monkeys; type: in vivo, Cynomolgus monkey
# Description: Section was illuminated under the fluorescence microscope with 360 nm wavelength light. Lipofuscin granules were detected by the emission of gold-yellow light with […] wavelength. […] Macrophages between the RPE and Bruch's membrane, however, contained many lipofuscin granules. The majority of these granules were smaller than those in RPE cells of untreated animals.
# RPE cells [6] = assay: 52-week oral study in the Cynomolgus monkey, conventional histopathology; type: in vivo
# Description: Soraprazan was administrated in oral application of 6, 12 and 24 mg/kg/day for 52 weeks in the Cynomolgus monkey.
# Some monkeys from the control and the high-dose group were subjected to a recovery period of 3 months.
# Two of these 3 monkeys had depigmentation of RPE cells although the photoreceptors facing the depigmented RPE stayed healthy. These RPE cells had released melanin as well as lipofuscin granules to secondary cells that had migrated between Bruch's membrane and the RPE cell layer or into the subretinal space.
# [7] = system: RPE cell cultures from human donor eyes; assay: Phagocytosis of fluorescent latex beads by RPE cell cultures; type: cell-based
# Description: Then the treatment-dependent ability of the cells to phagocytose, which is a crucial function of the RPE, was checked. For this purpose, RPE cell cultures from human donor eyes were exposed to vehicle or substance 1. After three weeks, fluorescent latex beads were added to the cell cultures for four hours. The cells were then washed to remove non-phagocytosed beads and fixed. Fluorescent images of the cells were taken and analysed for the contents of lipofuscin and the number of phagocytosed beads. The results shown in FIG. 19 are presented as the relationship between lipofuscin content and phagocytosed bead number in both controls and substance-1-treated cells.
compound,measurement,setting,value
"COCCO[C@@H]1c2ccn3c(C)c(C)nc3c2N[C@H](c2ccccc2)[C@H]1O [Soraprazan, (7R,8R,9R)-2,3-Dimethyl-8-hydroxy-7-(2-methoxyethoxy)-9-phenyl-7,8,9,10-tetrahydro-imidazo[1,2-h][1,7]naphthyridine]",Morphological changes in the neuroretina at the ultrastructural level,[1]; 24 mg/kg/day for 52 weeks,No morphological changes
same,Monkeys with loss of melanin and lipofuscin in RPE cells,"[1]; oral 24 mg/kg/day, 52 weeks",3 out of 7
same,Ultrastructural alterations in the retina compared to untreated monkeys,"[1]; oral 24 mg/kg/day, 52 weeks",could not be detected
same,Lipofuscin granules larger than 1 μm in diameter in RPE cells,[1]; treated animals,absent
same,Number of lipofuscin granules smaller than 0.4 μm in diameter in the cytoplasm of RPE cells,"[1]; ultrathin sections, treated monkeys",0.6±0.2 /50 μm^2
same,Lipofuscin and pigment content in cultured RPE cells,[2],decreased compared to the control
same,Lipofuscin and melanin in cultured human RPE cells,[2],reduced
same,Number of fluorescent lipofuscin particles per 50 μm RPE layer length,RPE,15.0±8.3 particles per 50 μm
same,"ERG a-wave and b-wave amplitudes after injection, compared with vehicle",[3],decrease of the amplitudes is even more pronounced
same,"ERG a-wave and b-wave amplitudes, recovery",[3],remained significantly lower than the base line
same,Pigmented cells bearing degradational clusters,[4]; 30 μg/ml,80.1%+/−22.6
same,"Lipofuscin granules in depigmented RPE cells (fluorescence, 360 nm illumination)",RPE cells [5],completely or almost completely absent
same,Conventional histopathology,RPE cells [6]; oral 6 mg/kg/day for 52 weeks,no alterations
same,Conventional histopathology,RPE cells [6]; oral 12 mg/kg/day for 52 weeks,no alterations
same,Monkeys showing migration of individual macrophages beneath the RPE and/or into the subretinal space,RPE cells [6]; oral 24 mg/kg/day for 52 weeks,Three out of 12
"CO[C@H]1c2ccn3c(C)c(C)nc3c2N[C@@H](c2ccccc2)[C@@H]1O [Example 1B, (7S,8S,9S)-2,3-Dimethyl-8-hydroxy-7-methoxy-9-phenyl-7,8,9,10-tetrahydro-imidazo[1,2-h][1,7]naphthyridine]",melting point,,161 to 162 °C
"CO[C@@H]1[C@@H](c2ccccc2)Nc2c(ccn3c(C)c(C)nc23)[C@H]1OC [Example 8, (7R,8R,9R)-2,3-Dimethyl-7,8-dimethoxy-9-phenyl-7,8,9,10-tetrahydro-imidazo[1,2-h][1,7]naphthyridine]",melting point,,155 to 156 °C
"Cc1nc2c3c(ccn2c1C)[C@H](OC(C)C)[C@H](O)[C@@H](c1ccccc1)N3 [Example 7, (7S,8R,9R)-2,3-Dimethyl-8-hydroxy-9-phenyl-7-(2-propoxy)-7,8,9,10-tetrahydro-imidazo[1,2-h][1,7]naphthyridine]",melting point,,168 to 169 °C
CCO[C@@H]1c2ccn3c(C)c(C)nc3c2N[C@H](c2ccccc2)[C@H]1O [substance 1],Lipofuscin and pigment content in cultured RPE cells,[2],even more clear and significant decrease
same,Lipofuscin and melanin in cultured human RPE cells,[2],reduced
same,Number of fluorescent lipofuscin particles per 50 μm RPE layer length,RPE,9.8±6.1 particles per 50 μm
same,"ERG a-wave and b-wave amplitudes after injection, compared with vehicle",[3],decrease of the amplitudes is even more pronounced
same,"ERG a-wave and b-wave amplitudes, recovery",[3],recover almost completely
same,Lipofuscin content of RPE cells,"[7]; after three weeks exposure, versus control (FIG. 19)",much more lipofuscin under control conditions than under the influence of substance 1
same,Number of phagocytosed latex beads,"[7]; three weeks exposure, beads for four hours, versus untreated cells (FIG. 19)",phagocytosed more beads than untreated cells
same,Pigmented cells bearing degradational clusters,[4]; 50 μg/ml,90.5%+/−21.3
"CCO[C@H]1c2ccn3c(C)c(C)nc3c2N[C@H](c2ccccc2)[C@H]1O [Example 4, (7S,8R,9R)-2,3-Dimethyl-7-ethoxy-8-hydroxy-9-phenyl-7,8,9,10-tetrahydro-imidazo[1,2-h][1,7]naphthyridine]",melting point,,135 to 137 °C
"CO[C@@H]1c2ccn3c(C)c(C)nc3c2N[C@@H](c2ccccc2)[C@@H]1O [Example 2B, (7R,8S,9S)-2,3-Dimethyl-8-hydroxy-7-methoxy-9-phenyl-7,8,9,10-tetrahydro-imidazo[1,2-h][1,7]naphthyridine]",melting point,,171 to 172 °C
"CO[C@H]1c2ccn3c(C)c(C)nc3c2N[C@H](c2ccccc2)[C@H]1O [Example 2A, (7S,8R,9R)-2,3-Dimethyl-8-hydroxy-7-methoxy-9-phenyl-7,8,9,10-tetrahydro-imidazo[1,2-h][1,7]naphthyridine]",melting point,,108 to 110 °C
